Results reported in patent US12052991B2, “Substituted pyridinyloxybenzenes and salts thereof and use thereof as herbicidal agents” (Bayer Aktiengesellschaft, priority 2018, dated 2024).

Legend:
Assay type in all cases: in vivo
[1] = system: Abutilon theophrasti (ABUTH); test: Herbicidal post-emergence action (Table B5); conditions: rated visually after about 3 weeks, 100% = plants have died, 0% = like control plants
Description: (§1) Seeds of mono- and dicotyledonous weed plants were placed in plastic pots in sandy loam soil (doubly sown with in each case one species of mono- or dicotyledonous weed plants per pot), covered with soil and cultivated in a greenhouse under controlled growth conditions. 2 to 3 weeks after sowing, the test plants were treated at the one-leaf stage. The compounds of the invention, formulated in the form of wettable powders (WP) or as emulsion concentrates (EC), were applied onto the green parts of the plants as aqueous suspension or emulsion with addition of 0.5% additive at a water application rate of 600 liters per hectare (converted). After the test plants had been kept in the greenhouse under optimum growth conditions for about 3 weeks, the activity of the preparations was rated visually in comparison to untreated controls. For example, 100% activity=the plants have died, 0% activity=like control plants. Tables B1 to B12 below show the effects of selected compounds of the general formula (I) according to Table 1 on various harmful plants and an application rate corresponding to 1280 or 320 g/ha, which were obtained by the experimental procedure mentioned above.

Stellaria media (STEME) [2] = test: Herbicidal post-emergence action (Table B8); conditions: visual rating about 3 weeks after treatment, 100% = plants have died, 0% = like control plants
Description: as §1

Bassia scoparia (KCHSC) = test: Herbicidal post-emergence action (Table B11); conditions: dosage 1280 g/ha; visual rating about 3 weeks after treatment; 100% = plants have died, 0% = like control plants
Description: as §1

Veronica persica (VERPE) [3] = test: Herbicidal post-emergence action (Table B12); conditions: visual rating about 3 weeks after treatment, 100% = plants have died, 0% = like control plants
Description: as §1

[4] = system: Amaranthus retroflexus (AMARE); test: Herbicidal pre-emergence action, test C (Table C6); conditions: visual scoring after about 3 weeks, 100% = plants have died, 0% = like control plants
Text: (§2) Seeds of mono- and dicotyledonous weed plants were placed in plastic pots in sandy loam soil (doubly sown with one species each of mono- or dicotyledonous weed plants per pot) and covered with soil. The compounds of the invention, formulated in the form of wettable powders (WP) or as emulsion concentrates (EC), were then applied onto the surface of the covering soil as aqueous suspension or emulsion with addition of 0.5% additive at a water application rate of 600 liters per hectare (converted). After the treatment, the pots were placed in a greenhouse and kept under good growth conditions for the test plants. After about 3 weeks, the effect of the preparations was scored visually in comparison with untreated controls as percentages. For example, 100% activity=the plants have died, 0% activity=like control plants. Tables C1 to C12 below show the effects of selected compounds of the general formula (I) according to Table 1 on various harmful plants and an application rate corresponding to 1280 or 320 g/ha, which were obtained by the experimental procedure mentioned above.

Stellaria media (STEME) [5] = test: Herbicidal pre-emergence action, test C (Table C8); conditions: visual scoring after about 3 weeks, 100% = plants have died, 0% = like control plants
Text: as §2

Veronica persica (VERPE) [6] = test: Herbicidal pre-emergence action, test C (Table C12); conditions: dosage 1280 g/ha, visual scoring vs untreated controls
Text: as §2

[7] = system: harmful plants ABUTH, AMARE, ECHCG, LOLRI, MATIN, POAAN, SETVI, STEME, ALOMY, DIGSA, KCHSC and VERPE; test: Herbicidal post-emergence action, summary of Tables B1-B12; conditions: application rate of 1280 or 320 g of active ingredient per hectare; summary in words
Description: as §1, with “controls.” for “controls. For example, 100% activity=the plants have died, 0% activity=like control plants. Tables B1 to B12 below show the effects of selected compounds of the general formula (I) according to Table 1 on various harmful plants and an application rate corresponding to 1280 or 320 g/ha, which were obtained by the experimental procedure mentioned above.”
(§3) For example, 100% activity=the plants have died, 0% activity=like control plants.
Tables B1 to B12 below show the effects of selected compounds of the general formula (I) according to Table 1 on various harmful plants and an application rate corresponding to 1280 or 320 g/ha, which were obtained by the experimental procedure mentioned above.
As the results of Tables B1-B12 show, compounds no.

[8] = system: harmful plants ABUTH, AMARE, ECHCG, LOLRI, MATIN, POAAN, SETVI, STEME, ALOMY, DIGSA, KCHSC and VERPE; test: Herbicidal pre-emergence action (test C), summary of Tables C1-C12; conditions: application rate of 1280 or 320 g of active ingredient per hectare; summary in words
Text: as §2, with “percentages.” for “percentages. For example, 100% activity=the plants have died, 0% activity=like control plants. Tables C1 to C12 below show the effects of selected compounds of the general formula (I) according to Table 1 on various harmful plants and an application rate corresponding to 1280 or 320 g/ha, which were obtained by the experimental procedure mentioned above.”
as §3
Tables C1 to C12 below show the effects of selected compounds of the general formula (I) according to Table 1 on various harmful plants and an application rate corresponding to 1280 or 320 g/ha, which were obtained by the experimental procedure mentioned above.
As the results of Tables C1-C12 show, compounds no.

[9] = system: Echinochloa crus-galli (ECHCG); test: Herbicidal post-emergence action (Table B1); conditions: 1280 g/ha; rated visually after about 3 weeks; 100% = plants have died, 0% = like control plants
Description: as §1

Poa annua (POAAN) [10] = test: Herbicidal post-emergence action (Table B3); conditions: rated visually after about 3 weeks, 100% = plants have died, 0% = like control plants
Description: as §1

[11] = system: Amaranthus retroflexus (AMARE); test: Herbicidal post-emergence action (Table B6); conditions: visual rating about 3 weeks after treatment, 100% = plants have died, 0% = like control plants
Description: as §1

Poa annua (POAAN) [12] = test: Herbicidal pre-emergence action, test C (Table C3); conditions: visual scoring after about 3 weeks, 100% = plants have died, 0% = like control plants
Text: as §2

Setaria viridis (SETVI) = test: Herbicidal pre-emergence action, test C (Table C4); conditions: dosage 1280 g/ha; visual scoring after about 3 weeks; 100% = plants have died, 0% = like control plants
Text: as §2

[13] = system: Matricaria inodora (MATIN); test: Herbicidal pre-emergence action, test C (Table C7); conditions: dosage 1280 g/ha; visual scoring after about 3 weeks; 100% = plants have died, 0% = like control plants
Text: as §2

[14] = system: Digitaria sanguinalis (DIGSA); test: Herbicidal pre-emergence action, test C (Table C10); conditions: dosage 1280 g/ha; visual scoring after about 3 weeks; 100% = plants have died, 0% = like control plants
Text: as §2

[15] = system: Abutilon theophrasti (ABUTH); test: Herbicidal pre-emergence action, test C (Table C5); conditions: dosage 1280 g/ha; visual scoring after about 3 weeks; 100% = plants have died, 0% = like control plants
Text: as §2

SMILES	Post-emergence action against Abutilon theophrasti (ABUTH) ([1]; 1280 g/ha)	Post-emergence action against Stellaria media (STEME) (Stellaria media (STEME) [2]; dosage 320 g/ha)	Post-emergence action against Stellaria media (STEME) (Stellaria media (STEME) [2]; dosage 1280 g/ha)	Post-emergence action against Veronica persica (VERPE) (Veronica persica (VERPE) [3]; dosage 320 g/ha)	Post-emergence action against Veronica persica (VERPE) (Veronica persica (VERPE) [3]; dosage 1280 g/ha)	Pre-emergence action against Amaranthus retroflexus (AMARE) ([4]; dosage 1280 g/ha)	Pre-emergence action against Stellaria media (STEME) (Stellaria media (STEME) [5]; dosage 1280 g/ha)	Pre-emergence action against Veronica persica (VERPE) (Veronica persica (VERPE) [6])	herbicidal activity against the harmful plants of Tables B1-B12 in post-emergence treatment [7]	herbicidal activity against the harmful plants of Tables C1-C12 in pre-emergence treatment [8]	Post-emergence action against Poa annua (POAAN) (Poa annua (POAAN) [10]; 320 g/ha)	Post-emergence action against Poa annua (POAAN) (Poa annua (POAAN) [10]; 1280 g/ha)	Post-emergence action against Amaranthus retroflexus (AMARE) ([11]; dosage 320 g/ha)	Post-emergence action against Amaranthus retroflexus (AMARE) ([11]; dosage 1280 g/ha)	Pre-emergence action against Poa annua (POAAN) (Poa annua (POAAN) [12]; dosage 320 g/ha)	Pre-emergence action against Poa annua (POAAN) (Poa annua (POAAN) [12]; dosage 1280 g/ha)	Pre-emergence action against Setaria viridis (SETVI) (Setaria viridis (SETVI))	Pre-emergence action against Amaranthus retroflexus (AMARE) ([4]; dosage 320 g/ha)	Pre-emergence action against Matricaria inodora (MATIN) [13]	Pre-emergence action against Digitaria sanguinalis (DIGSA) [14]	also measured
Cc1ccc(-c2cc(C(F)F)no2)c(Oc2ncc(Cl)cc2F)c1 [Example 1-27]	90%	100%	100%	100%	100%	90%	90%	100%	very good herbicidal activity	very good herbicidal activity											Post-emergence action against Bassia scoparia (KCHSC) (Bassia scoparia (KCHSC)): 90%
COc1ccc(-c2cc(C(F)F)no2)c(Oc2ccc(Cl)cn2)c1 [Example 1-39]	90%	100%	100%	100%	100%	100%	100%	100%	very good herbicidal activity	very good herbicidal activity	100%	100%	100%	100%	100%	100%	90%	100%	90%	90%	Post-emergence action against Echinochloa crus-galli (ECHCG) [9]: 90%; Pre-emergence action against Stellaria media (STEME) (Stellaria media (STEME) [5]; dosage 320 g/ha): 100%
FC(F)c1cc(-c2ccc(Br)cc2Oc2ccc(Cl)cn2)on1 [Example 1-62]	100%		100%	100%	100%	100%		90%	very good herbicidal activity	very good herbicidal activity	100%	100%	100%	100%	90%	100%	100%	90%		100%	Post-emergence action against Abutilon theophrasti (ABUTH) ([1]; 320 g/ha): 100%; Pre-emergence action against Abutilon theophrasti (ABUTH) [15]: 90%
Cc1ccc(-c2ccccc2Oc2ccc(Cl)cn2)nc1 [Example 1-80]	100%		100%	100%	100%	100%		100%	very good herbicidal activity	very good herbicidal activity				100%		90%	100%	100%	90%	100%	
